# From patent US12616713B2, “Methods for enhancing vascular density” (priority 2016, dated 2026)
# Tests used:
# [1] = tested on: MLECs from WT and ESKO mice; test: Spheroid sprouting assay, MLECs; type: cell-based, mouse; details: WT versus ESKO MLECs, C2C12 CM, NMN 0.5 mM
# Method: ECs spheroids were generated as described previously (Korff and Augustin, 1998, J Cell Biol 143, 1341-1352). ECs (1000 cells per spheroid) were suspended in EGM-2 medium containing 20% methocel (viscosity: 4000 cps, Sigma) and seeded in non-adherent round-bottom 96-well plates (Sigma). Under these conditions all suspended cells contributed to the formation of a single spheroid. The spheroids were harvested after 24 h embedded into collagen gels. Sprouting was initiated by adding C2C12 CM or EBM-2 medium containing VEGF (50 ng/mL). NMN (0.5 mM), NaHS (0.1 mM), DAPT (20 μM, Cayman Chemical) or SU5416 (10 μM, Sigma) were added to the media wherever mentioned. Angiogenic activity was quantified by measuring the sprout length that had grown out of each spheroid analyzing 8-10 spheroids per group.
# [2] = tested on: HUVECs; test: Cell apoptosis assay, HUVECs exposed to H2O2; type: cell-based, human
# Method: HUVECs were treated with PBS (vehicle), NaHS (100 μM), NMN (500 μM) or NMN+NaHS for 6 h, followed by exposure to H2O2 (600 μM) for another 4 h. After treatments, the number of apoptotic cells was determined using Annexin V-FITC apoptosis detection kit (eBioscience) as per manufacturer's instructions. Briefly, cells were collected by trypsinization and centrifugation at 1500 rpm for 5 minutes, followed by washing cell pellet twice with cold PBS and resuspending cell pellet in 1× Annexin-binding buffer. Then, 5 μL of Annexin-V FITC was added to 195 μL of cell suspension and incubated at room temperature for 15 min in the dark. After the incubation, cells were centrifuged, resuspended in 195 μL of 1× Annexin-binding buffer and then 5 μL of propidium iodide working solution was added. After mixing gently, the fluorescence intensity was detected with a flow cytometry (FACSCanto II Analyzer, BD Biosciences) at emission at 530 nm and 575 nm and excitation at 488 nm. […]
# [3] = tested on: MLECs isolated from WT and ESKO mice; test: Transwell migration assay, MLECs; type: cell-based, mouse; details: WT versus ESKO MLECs, C2C12 CM, NMN 0.5 mM
# [4] = tested on: HUVECs; test: Tube formation assay, HUVECs after H2O2; type: cell-based, human; details: H2O2 150 μM 1 h, NMN 500 μM 10 h
# Method: Formation of tube networks was assessed as described before (Borradaile and Pickering, 2009, Aging Cell 8, 100-112). ECs were seeded at 10,000 cells per well in a 24-well plate (Corning) coated with 150 μL Cultrex reduced growth factor basement membrane extract (Trevigen). The cells were supplemented with C2C12 CM or EBM-2 medium containing VEGF (30 ng/mL) or FGF (30 ng/mL). NMN (0.5 mM) and NaHS (0.1 mM) were added to the media wherever mentioned. Following an 18 h-incubation, resulting tube networks were analyzed by light microscopy (Nikon Eclipse TiE). For tube formation assays with H2O2 treatment, cells were incubated with 150 μM H2O2 for 1 h before seeding and imaged after 10 h-incubation. The number of branch points and total length of tubule networks were quantified by ImageJ software.
# [5] = tested on: HUVECs; test: Seahorse analysis of oxygen consumption rate; type: cell-based, human; details: NaHS 100 μM, NMN 500 μM
# Method: Oxygen consumption rates were measured in accordance with manufacturer instructions using Seahorse XF96 analyzer (Seahorse Bioscience). Briefly, 40,000 HUVECs were plated onto XF96 plates and incubated overnight at 37° C./5% CO2. Next day, the media was replaced with XF assay media (DMEM), supplemented with glucose (1 g/L), glutamate (2 mM) and pyruvate (1 mM) and the pH was adjusted to 7.4. NaHS (100 μM) and/or NMN (500 μM) were added at the start of the experiment. Oxygen consumption measurements were made approximately every 8 minutes under basal conditions, and after the addition of oligomycin (1 μM). Experiments were replicated in six wells and averaged for each experimental condition.
# [6] = Food and water intake, body weight and composition, motor and cardiac function of treated old mice; type: in vivo, mouse; details: 18-month old mice, NMN 400 mg/kg/day in drinking water, two months
# Source text: SIRT1-iKO, SIRT1-Tg and SIRT1^STOP mice were described previously (Firestein et al., 2008, PLoS One 3, e2020; Price et al., 2012, Cell Metab 15, 675-690). Tie2Cre and Sirt1^flox/flox mice were purchased from Jackson Laboratory (Bar Harbor, ME). MCK-PGC-1α and MyogCre mice were gifts from Dr. Bruce Spiegelman (Dana Farber Cancer Center, MA) and Dr. Eric N. Olson (UT Southwestern, Dallas, TX), respectively. mT-STOP^flox/flox, Gfp mouse was generated in house by E.O.W., which consists of an allele driven by ubiquitous actin B promoter, which has loxP sites flanking membrane-targeted tandem dimer Tomato (mT) and transcriptional STOP cassette, followed by a GFP coding sequence. […] Mice were fasted for 6 h and blood glucose levels were measured by tail bleed (Accu Check Performa, Roche). Blood lactate was measured before and immediately after treadmill exercise training for 20 minutes at 15 meters/minute by tail bleed (Accutrend Plus, Roche). […] Urine was collected after a 2 h fast and analyzed for creatinine levels using a colorimetric assay kit (Cayman chemical, US) as per manufacturer's protocol. Motor coordination was assessed using the rotarod test as previously described ([…] et al., 2011, Plos One 6, e20336). […] On the 4th day, the animals were subjected to three trials on the accelerating roller (4-40 rpm in 4 min) and the time that the mice remained was recorded. […]
structure (smiles),measurement,setting,value
"NC(=O)c1ccc[n+]([C@@H]2O[C@H](COP(=O)([O-])O)[C@@H](O)[C@H]2O)c1 [NMN, nicotinamide mononucleotide]","ability of NMN to stimulate spheroid sprouting, dependence on SIRT1",[1],SIRT1-dependent
same,percentage of cells undergoing early apoptosis,"[2]; NMN 500 μM 6 h, then H2O2 600 μM 4 h",reduced the percentage of cells undergoing early apoptosis
same,reduction of apoptosis in response to H2O2,"[2]; NaHS 0.1 mM and/or NMN 0.5 mM 6 hrs, then H2O2 600 μM 4 hrs",13%
same,"ability of NMN to stimulate cell migration, dependence on SIRT1",[3],SIRT1-dependent
same,VEGF mediated angiogenesis (tube formation) after treatment with H2O2,[4],promoted VEGF mediated angiogenesis
same,basal OCR,[5],had no effect
same,"food intake, water consumption, body weights, body composition, motor learning skills and cardiac function",[6],had no effect
